Results published in ChEMBL document CHEMBL3627608, “Crystal structures of human RIP2 kinase catalytic domain complexed with ATP-competitive inhibitors: Foundations for understanding inhibitor selectivity” (Bioorg Med Chem, 2015).

Tests used:
[1] = target: T1, Inhibitor of nuclear factor kappa-B kinase subunit alpha (Homo sapiens) (UniProt O15111); assay: Inhibition of IKKalpha (unknown origin) at 10 uM after 120 mins P33 radiolabeled kinase activity assay
T1 sequence (whole entry): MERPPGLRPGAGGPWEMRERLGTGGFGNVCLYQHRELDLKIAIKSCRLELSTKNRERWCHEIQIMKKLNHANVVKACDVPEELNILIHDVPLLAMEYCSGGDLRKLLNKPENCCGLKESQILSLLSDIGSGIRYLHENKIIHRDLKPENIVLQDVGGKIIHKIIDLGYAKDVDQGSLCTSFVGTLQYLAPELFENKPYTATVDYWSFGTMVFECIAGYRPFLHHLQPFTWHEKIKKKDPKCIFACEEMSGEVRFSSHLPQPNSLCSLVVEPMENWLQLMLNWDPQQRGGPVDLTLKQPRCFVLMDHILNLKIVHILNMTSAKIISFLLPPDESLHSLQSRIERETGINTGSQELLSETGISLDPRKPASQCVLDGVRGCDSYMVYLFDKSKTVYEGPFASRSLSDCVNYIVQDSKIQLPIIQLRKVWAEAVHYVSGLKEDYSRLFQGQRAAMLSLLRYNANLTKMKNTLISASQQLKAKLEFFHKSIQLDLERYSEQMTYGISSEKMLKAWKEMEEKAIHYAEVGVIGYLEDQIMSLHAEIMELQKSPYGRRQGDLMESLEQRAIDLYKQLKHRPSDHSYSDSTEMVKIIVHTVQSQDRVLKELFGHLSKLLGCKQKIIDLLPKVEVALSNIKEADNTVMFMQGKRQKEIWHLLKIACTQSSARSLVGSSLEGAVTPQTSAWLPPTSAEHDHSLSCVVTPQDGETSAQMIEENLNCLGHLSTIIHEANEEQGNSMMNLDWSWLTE

[2] = target: Cell division cycle 7-related protein kinase (Homo sapiens) (UniProt O00311); assay: Inhibition of CDC7 (unknown origin) at 10 uM after 120 mins P33 radiolabeled kinase activity assay
[3] = target: T2, Serine/threonine-protein kinase Sgk3 (Homo sapiens) (UniProt Q96BR1); assay: Inhibition of SGK3 (unknown origin) at 10 uM after 120 mins P33 radiolabeled kinase activity assay
T2 sequence (whole entry): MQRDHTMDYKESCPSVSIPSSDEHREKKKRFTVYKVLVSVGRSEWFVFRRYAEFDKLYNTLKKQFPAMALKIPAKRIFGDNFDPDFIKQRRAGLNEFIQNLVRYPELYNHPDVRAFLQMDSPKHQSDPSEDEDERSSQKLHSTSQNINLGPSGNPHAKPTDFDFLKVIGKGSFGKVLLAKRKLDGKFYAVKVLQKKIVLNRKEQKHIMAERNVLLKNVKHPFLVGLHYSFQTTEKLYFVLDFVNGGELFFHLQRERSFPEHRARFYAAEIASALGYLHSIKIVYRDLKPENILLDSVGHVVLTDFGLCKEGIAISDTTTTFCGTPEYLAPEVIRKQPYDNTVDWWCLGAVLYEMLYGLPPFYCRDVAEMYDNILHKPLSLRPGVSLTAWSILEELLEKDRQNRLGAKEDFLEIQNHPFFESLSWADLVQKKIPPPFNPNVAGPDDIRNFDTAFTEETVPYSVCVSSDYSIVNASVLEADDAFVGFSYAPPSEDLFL

[4] = target: Serine/threonine-protein kinase pim-1 (Homo sapiens) (UniProt P11309); assay: Inhibition of PIM1 (unknown origin) at 10 uM after 120 mins P33 radiolabeled kinase activity assay
[5] = target: Cyclin-dependent kinase 4/cyclin D1 (Homo sapiens) (UniProt P11802+P24385); assay: Inhibition of CDK4/cyclin D1 (unknown origin) at 10 uM after 120 mins P33 radiolabeled kinase activity assay; assay type: protein-complex assay
[6] = target: T3, Serine/threonine-protein kinase TAO3 (Homo sapiens) (UniProt Q9H2K8); assay: Inhibition of TAOK3 (unknown origin) at 10 uM after 120 mins P33 radiolabeled kinase activity assay
T3 sequence (whole entry): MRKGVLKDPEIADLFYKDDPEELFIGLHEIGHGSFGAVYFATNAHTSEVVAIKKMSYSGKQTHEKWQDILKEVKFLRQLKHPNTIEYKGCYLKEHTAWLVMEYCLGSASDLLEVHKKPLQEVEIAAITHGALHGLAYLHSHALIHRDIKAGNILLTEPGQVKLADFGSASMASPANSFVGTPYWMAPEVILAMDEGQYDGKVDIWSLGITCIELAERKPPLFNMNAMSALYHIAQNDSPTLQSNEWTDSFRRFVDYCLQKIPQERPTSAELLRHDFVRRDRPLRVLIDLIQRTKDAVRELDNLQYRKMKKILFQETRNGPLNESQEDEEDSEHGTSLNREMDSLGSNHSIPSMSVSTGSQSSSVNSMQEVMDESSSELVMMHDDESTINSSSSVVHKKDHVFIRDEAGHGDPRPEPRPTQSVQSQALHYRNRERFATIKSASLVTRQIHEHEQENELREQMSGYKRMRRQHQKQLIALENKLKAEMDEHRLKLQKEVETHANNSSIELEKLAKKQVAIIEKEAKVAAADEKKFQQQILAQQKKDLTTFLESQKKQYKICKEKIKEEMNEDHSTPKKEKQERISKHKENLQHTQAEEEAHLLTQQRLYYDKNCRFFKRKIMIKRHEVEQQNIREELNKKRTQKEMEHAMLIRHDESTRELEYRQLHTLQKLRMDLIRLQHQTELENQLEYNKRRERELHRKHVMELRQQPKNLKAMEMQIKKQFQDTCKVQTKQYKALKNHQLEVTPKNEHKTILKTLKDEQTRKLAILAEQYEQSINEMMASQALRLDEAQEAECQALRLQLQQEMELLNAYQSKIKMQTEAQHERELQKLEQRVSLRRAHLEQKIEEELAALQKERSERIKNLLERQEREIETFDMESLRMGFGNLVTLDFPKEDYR

[7] = target: Serine/threonine-protein kinase MARK2 (Homo sapiens) (UniProt Q7KZI7); assay: Inhibition of MARK2 (unknown origin) at 10 uM after 120 mins P33 radiolabeled kinase activity assay
[8] = target: Protein kinase C alpha type (Homo sapiens) (UniProt P17252); assay: Inhibition of PKCalpha (unknown origin) at 10 uM after 120 mins P33 radiolabeled kinase activity assay
[9] = target: Mitogen-activated protein kinase kinase kinase kinase 5 (Homo sapiens) (UniProt Q9Y4K4); assay: Inhibition of KHS (unknown origin) at 10 uM after 120 mins P33 radiolabeled kinase activity assay
[10] = target: Bone morphogenetic protein receptor type-1A (Homo sapiens) (UniProt P36894); assay: Inhibition of ALK3 (unknown origin) at 10 uM after 120 mins P33 radiolabeled kinase activity assay
Bone morphogenetic protein receptor type-1A (Homo sapiens), sequence (P36894 whole entry): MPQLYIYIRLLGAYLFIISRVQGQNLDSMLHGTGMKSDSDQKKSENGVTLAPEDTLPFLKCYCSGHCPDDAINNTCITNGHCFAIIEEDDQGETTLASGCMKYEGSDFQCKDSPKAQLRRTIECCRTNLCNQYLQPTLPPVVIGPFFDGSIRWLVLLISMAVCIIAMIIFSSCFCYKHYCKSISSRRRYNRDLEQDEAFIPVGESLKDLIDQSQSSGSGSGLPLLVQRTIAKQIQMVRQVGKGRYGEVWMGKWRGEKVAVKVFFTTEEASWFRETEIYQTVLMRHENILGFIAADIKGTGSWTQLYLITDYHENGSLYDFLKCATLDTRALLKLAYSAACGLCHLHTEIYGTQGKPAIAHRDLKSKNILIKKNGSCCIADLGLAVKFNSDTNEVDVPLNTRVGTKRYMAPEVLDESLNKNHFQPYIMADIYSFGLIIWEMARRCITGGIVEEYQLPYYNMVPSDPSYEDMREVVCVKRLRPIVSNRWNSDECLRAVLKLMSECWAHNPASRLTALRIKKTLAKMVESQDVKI

Mitogen-activated protein kinase kinase kinase kinase 5 (Homo sapiens), sequence (Q9Y4K4 whole entry, looked up): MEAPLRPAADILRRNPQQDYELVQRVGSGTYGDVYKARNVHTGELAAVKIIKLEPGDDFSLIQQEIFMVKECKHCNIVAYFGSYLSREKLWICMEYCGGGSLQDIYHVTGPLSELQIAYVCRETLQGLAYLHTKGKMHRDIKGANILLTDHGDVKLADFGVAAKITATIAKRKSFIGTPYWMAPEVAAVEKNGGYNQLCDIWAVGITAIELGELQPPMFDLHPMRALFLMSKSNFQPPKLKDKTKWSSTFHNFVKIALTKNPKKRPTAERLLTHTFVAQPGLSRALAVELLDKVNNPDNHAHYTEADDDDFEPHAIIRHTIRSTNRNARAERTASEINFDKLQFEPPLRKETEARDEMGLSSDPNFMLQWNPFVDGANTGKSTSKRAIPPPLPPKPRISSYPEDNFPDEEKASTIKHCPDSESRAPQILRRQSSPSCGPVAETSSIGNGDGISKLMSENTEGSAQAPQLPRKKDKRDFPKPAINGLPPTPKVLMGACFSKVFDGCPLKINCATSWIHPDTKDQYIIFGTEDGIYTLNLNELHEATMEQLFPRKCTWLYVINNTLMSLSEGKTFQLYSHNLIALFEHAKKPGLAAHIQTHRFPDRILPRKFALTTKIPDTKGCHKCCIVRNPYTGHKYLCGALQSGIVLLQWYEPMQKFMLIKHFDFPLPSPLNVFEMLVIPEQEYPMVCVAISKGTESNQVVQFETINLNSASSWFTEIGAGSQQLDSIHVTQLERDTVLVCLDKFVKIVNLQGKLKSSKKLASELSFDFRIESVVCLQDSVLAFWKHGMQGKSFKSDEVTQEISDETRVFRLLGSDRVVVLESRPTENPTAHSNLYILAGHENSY
Serine/threonine-protein kinase pim-1 (Homo sapiens), sequence (P11309 whole entry, looked up): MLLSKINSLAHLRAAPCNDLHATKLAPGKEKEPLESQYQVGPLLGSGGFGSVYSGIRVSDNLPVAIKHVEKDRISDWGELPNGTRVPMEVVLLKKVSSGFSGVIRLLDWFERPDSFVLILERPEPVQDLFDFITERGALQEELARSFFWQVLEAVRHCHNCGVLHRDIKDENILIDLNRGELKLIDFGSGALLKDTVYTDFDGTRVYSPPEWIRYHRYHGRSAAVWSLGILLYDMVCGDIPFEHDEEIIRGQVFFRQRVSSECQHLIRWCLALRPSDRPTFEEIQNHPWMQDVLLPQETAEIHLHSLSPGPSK
Cell division cycle 7-related protein kinase (Homo sapiens), sequence (O00311 whole entry, looked up): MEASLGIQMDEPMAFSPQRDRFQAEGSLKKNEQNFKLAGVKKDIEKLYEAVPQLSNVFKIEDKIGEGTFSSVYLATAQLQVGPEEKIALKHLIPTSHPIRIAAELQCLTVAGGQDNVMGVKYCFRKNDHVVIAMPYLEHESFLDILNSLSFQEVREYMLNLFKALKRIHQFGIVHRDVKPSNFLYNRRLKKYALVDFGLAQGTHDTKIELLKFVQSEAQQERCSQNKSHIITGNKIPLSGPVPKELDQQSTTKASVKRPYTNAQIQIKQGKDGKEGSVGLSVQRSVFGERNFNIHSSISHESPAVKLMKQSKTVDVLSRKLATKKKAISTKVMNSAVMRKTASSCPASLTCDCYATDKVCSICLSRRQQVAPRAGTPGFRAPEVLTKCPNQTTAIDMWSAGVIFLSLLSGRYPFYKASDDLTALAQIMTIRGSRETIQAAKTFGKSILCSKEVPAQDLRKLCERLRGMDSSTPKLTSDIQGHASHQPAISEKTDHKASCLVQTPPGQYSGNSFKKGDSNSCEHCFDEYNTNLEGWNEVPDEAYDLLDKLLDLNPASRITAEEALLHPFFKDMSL
Serine/threonine-protein kinase MARK2 (Homo sapiens), sequence (Q7KZI7 whole entry): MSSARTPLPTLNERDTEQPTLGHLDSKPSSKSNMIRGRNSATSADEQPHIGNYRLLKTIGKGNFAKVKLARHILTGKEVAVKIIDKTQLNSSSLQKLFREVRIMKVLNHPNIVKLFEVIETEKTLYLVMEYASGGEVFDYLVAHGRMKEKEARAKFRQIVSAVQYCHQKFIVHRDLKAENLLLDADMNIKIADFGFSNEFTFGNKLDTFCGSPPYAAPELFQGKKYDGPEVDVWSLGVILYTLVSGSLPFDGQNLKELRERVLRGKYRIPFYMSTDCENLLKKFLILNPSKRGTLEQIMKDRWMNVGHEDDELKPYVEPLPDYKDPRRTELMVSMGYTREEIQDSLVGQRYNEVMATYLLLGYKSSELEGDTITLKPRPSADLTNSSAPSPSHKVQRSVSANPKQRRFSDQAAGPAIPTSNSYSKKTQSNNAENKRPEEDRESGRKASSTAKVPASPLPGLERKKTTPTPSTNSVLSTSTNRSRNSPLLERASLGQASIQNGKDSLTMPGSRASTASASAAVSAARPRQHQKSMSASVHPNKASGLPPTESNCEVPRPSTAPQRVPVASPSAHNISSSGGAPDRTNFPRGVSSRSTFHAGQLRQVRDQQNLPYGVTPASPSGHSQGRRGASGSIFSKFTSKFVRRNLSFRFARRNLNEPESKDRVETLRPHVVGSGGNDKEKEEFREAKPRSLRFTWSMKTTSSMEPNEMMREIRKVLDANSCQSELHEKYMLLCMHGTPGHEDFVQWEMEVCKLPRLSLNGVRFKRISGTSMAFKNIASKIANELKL

| SMILES | inhibition [1] [%] | inhibition [2] [%] | inhibition [3] [%] | inhibition [4] [%] | inhibition [5] [%] | inhibition [6] [%] | inhibition [7] [%] | inhibition [8] [%] | inhibition [9] [%] | inhibition [10] [%] |
| --- | --- | --- | --- | --- | --- | --- | --- | --- | --- | --- |
| COCCNC(=O)c1ccc2c(c1)nc(-c1cnc(-c3ccc(Cl)cc3)[nH]1)n2CCOC | 2.39 | 6.05 | 5.07 | 7.46 | -1.3 | -0.26 | 2.7 | -4.59 | 33.6 | -9.9 |
| CS(=O)(=O)c1cccc(Nc2nccc(-c3sc(N4CCOCC4)nc3-c3cccc(NS(=O)(=O)c4c(F)cccc4F)c3)n2)c1 | 3.48 | 9.73 | 3.98 | 10.6 | 74.5 | 26.7 | 10.9 | -5.32 | 93.5 | 75.5 |
| CC(C)(C)c1cc(NC(=O)Nc2ccc(Oc3ccncc3)cc2)no1 | 11.2 | 5.38 | 10 | 64.5 | 43 | 51 | 3.84 | -7.51 | 90 | -6.2 |
